Values after ≈ are worked out from the molar mass of the structure shown. Where two headings read alike, the source gives them in different places.
Legend:
[1] = test system: HIV-1; assay: Inhibitory activity against HIV-1 (literature method, Chen et al. J Virol 1997); conditions: for EC50: Human immunodeficiency virus 1; for inhibition at 1 µM: Human immunodeficiency virus 1, read-out: Anti-HIV (%, 1.0 μM); for Therapeutic index (TI) = 50% cytotoxicity doses/50% effective dose: value in brackets after EC50
Experimental: Inhibitory activity of the coumarin derivatives of the present invention against HIV-1.
Inhibitory activity of the compounds against HIV-1 is assayed using the literature method. The experimental conditions, procedures, reagents and so on of the experiment are referred to the reference of “ZHIWEI CHEN, PEI ZHOU, DAVID D. HO, et al. Genetically divergent strains of simian immuno-deficiency virus use CCR5 as a coreceptor for entry. Journal of Virology, 1997, 71(4): 2705-2714”.

[2] = test system: host cells of the virus; assay: Cell toxicity to the host cells of the virus at 10 μM; type: cell-based
[3] = test system: Mycobacterium tuberculosis H37Rv (ATCC 27294); assay: Microplate Alamar Blue Assay (MABA) in BACTEC 12B medium (TAACF screen); type: cell-based
[4] = read-out: anti-TB active compound (MIC90 less than 10 μg/mL), classification

SMILES | inhibition at 1 µM [1] [%] | melting point [°C] | IC50 [3] [µg/mL] | MIC90 ([3]; MABA, H37Rv, read-out: MIC90) [µg/mL] | other results
CCCc1cc(=O)oc2c3c(c4c(c12)OC(C)(C)C=C4)OC(C)CC3O (single isomer, unassigned; (+)) [(+)-11-demethyl Calanolide A, reference compound] |  |  |  |  | Anti-HIV (%, 1.0 μM) ([1]; compound at 1.0 μM): 75%; Cell toxicity (10 μM) ([2]; class symbol, share of host cells of the virus died at 10 μM compound): ++ (10-80%); Cell toxicity (10 μM), number printed before the class symbol ([2]; host cells of the virus died at 10 μM compound): 54%
CCc1cc(=O)oc2c3c(c4c(c12)OC(C)(C)C=C4)OC(C)CC3=O (centres unmarked) [Example 9] | 73.2 |  |  |  | EC50 [1]: 270 nM; Therapeutic index (TI) = 50% cytotoxicity doses/50% effective dose [1]: > 1000; Cell toxicity (10 μM) [2]: −
CCCc1cc(=O)oc2c3c(c4c(c12)OC(C)(C)C=C4)OC(C)CC3=O (centres unmarked) [Example 11, 6,6,10-trimethyl-4-n-propyl-2H,6H,12H-benzo[1,2-b:3,4-b′:5,6-b″]-tripyranyl-2,12-dione] | 73.1 |  |  |  | 
CCCc1cc(=O)oc2c3c(c4c(c12)OC(C)(C)C=C4)OC(C)(C)CC3=O [Example 12, 6,6,10,10-tetramethyl-4-n-propyl-2H,6H,12H-benzo[1,2-b:3,4-b′:5,6-b″]-tripyranyl-2,12-dione] | 68.3 | 110 to 112 |  |  | EC50 [1]: 640 nM; Therapeutic index (TI) = 50% cytotoxicity doses/50% effective dose [1]: 47-140
CCCc1cc(=O)oc2c3c(c4c(c12)OC(C)(C)C=C4)OC(CCC)CC3=O (centres unmarked) [Example 14, 6,6-dimethyl-4,10-di-n-propyl-2H,6H,12H-benzo[1,2-b:3,4-b′:5,6-b″]-tripyranyl-2,12-dione] | 61.9 |  | 5.72 (≈ 15 µM) | 6.44 (≈ 16.8 µM) | EC50 [1]: 32.5 nM; anti-HIV-1 activity in vitro compared to (+)-calanolide A ([1]; in words): much higher inhibitory activity; therapeutic index, in words ([1]; in words): high therapeutic index; Therapeutic index (TI) = 50% cytotoxicity doses/50% effective dose [1]: 102-308; MIC90 [3, 4]: < 10 µg/mL
CCCCCC1CC(=O)c2c(c3c(c4c(CCC)cc(=O)oc24)OC(C)(C)C=C3)O1 (centres unmarked) [Example 15, 6,6-dimethyl-4-n-propyl-10-n-pentyl-2H,6H,12H-benzo[1,2-b:3,4-b′:5,6-b″]-tripyranyl-2,12-dione] | 46.4 | 128 to 131 |  |  | 
CCCc1cc(=O)oc2c3c(c4c(c12)OC(C)(C)C=C4)OC(c1ccccc1)CC3=O (centres unmarked) [Example 16, 6,6-dimethyl-4-n-propyl-10-phenyl-2H,6H,12H-benzo[1,2-b:3,4-b′:5,6-b″]-tripyranyl-2,12-dione] | 62.7 |  | 2.91 (≈ 6.99 µM) | > 100 | 
CCCc1cc(=O)oc2c3c(c4c(c12)OC(C)(C)C=C4)O[C@@H]1CCCC[C@H]1C3=O [Example 18, 6,6-dimethyl-4-n-propyl-10,11-trans-cyclohexyl-2H,6H,12H-benzo[1,2-b:3,4-b′:5,6-b″]-tripyranyl-2,12-dione] | 40 | 151 to 153 | 46.8 (≈ 119 µM) | > 100 | 
CCCc1cc(=O)oc2c3c(c4c(c12)OC(C)(C)C=C4)O[C@@H]1CCCC[C@@H]1C3=O [Example 19, 6,6-dimethyl-4-n-propyl-10,11-cis-cyclohexyl-2H,6H,12H-benzo[1,2-b:3,4-b′:5,6-b″]-tripyranyl-2,12-dione] | 59.3 | 156 to 159 | 7.95 (≈ 20.1 µM) | 11.2 (≈ 28.5 µM) | 
CCCc1c(Cl)c(=O)oc2c3c(c4c(c12)OC(C)(C)C=C4)OC(C)CC3=O (centres unmarked) [Example 20, 6,6,10-trimethyl-3-chrolo-4-n-propyl-2H,6H,12H-benzo[1,2-b:3,4-b′:5,6-b″]-tripyranyl-2,12-dione] | 68.1 |  |  |  | EC50 [1]: 370 nM; Therapeutic index (TI) = 50% cytotoxicity doses/50% effective dose [1]: 243-730; Cell toxicity (10 μM) [2]: −
CCCc1cc(=O)oc2c3c(c4c(c12)OC(C)(C)C=C4)OCC(C)C3=O (centres unmarked) [Example 30, 6,6,11-trimethyl-4-n-propyl-2H,6H,12H-benzo[1,2-b:3,4-b′:5,6-b″]-tripyranyl-2,12-dione] | 38.9 | 133 to 134 |  |  | 
CCCc1c(F)c(=O)oc2c3c(c4c(c12)OC(C)(C)C=C4)OC(C)CC3=O (centres unmarked) [Example 31, 6,6,10-trimethyl-3-fluoro-4-n-propyl-2H,6H,12H-benzo[1,2-b:3,4-b′:5,6-b″]-tripyranyl-2,12-dione] | 45.3 |  |  |  | 
CCCCc1cc(=O)oc2c3c(c4c(c12)OC(c1ccccc1)C=C4)OC(C)CC3=O (centres unmarked) [Example 44] | 96.4 | 137 to 139 |  |  | 
CCc1cc(=O)oc2c3c(c4c(c12)OC(c1ccccc1)C=C4)OC(C)CC3=O (centres unmarked) [Example 45] | 96.4 | 126 to 128 | 2.01 (≈ 5.18 µM) | 2.73 (≈ 7.02 µM) | MIC90 [3, 4]: < 10 µg/mL
CCCCC1C=Cc2c3c(c4oc(=O)cc(CC)c4c2O1)C(=O)CC(C)O3 (centres unmarked) [Example 46] | 96.7 | 119 to 121 | 0.276 (≈ 0.749 µM) | 0.716 (≈ 1.94 µM) | MIC90 [3, 4]: < 10 µg/mL
CCCC1C=Cc2c3c(c4oc(=O)cc(CC)c4c2O1)C(=O)CC(C)O3 (centres unmarked) [Example 47] | 97 | 119 to 121 | 1.49 (≈ 4.21 µM) | 1.73 (≈ 4.88 µM) | MIC90 [3, 4]: < 10 µg/mL
CCCc1c(Cl)c(=O)oc2c3c(c4c(c12)OC(c1ccccc1)C=C4)OC(C)CC3=O (centres unmarked) [Example 50, 1-methyl-4-n-propyl-3-chloro-6-phenyl-2H,6H,12H-benzo[1,2-b:3,4-b′:5,6-b″]-tripyranyl-12-dione] | 96.3 | 152 to 154 | 6.07 (≈ 13.9 µM) | 6.7 (≈ 15.3 µM) | MIC90 [3, 4]: < 10 µg/mL
CCCc1cc(=O)oc2c3c(c4c(c12)OC(C)C=C4)OCC(C)C3=O (centres unmarked) [Example 75, 6,11-dimethyl-4-n-propyl-2H,6H,12H-benzo[1,2-b:3,4-b′:5,6-b″]-tripyranyl-2,12-dione] | 62.4 | 135 to 137 | 1 (≈ 2.95 µM) | 1.89 (≈ 5.56 µM) | MIC90 [3, 4]: < 10 µg/mL
CCCCC1C=Cc2c3c(c4oc(=O)cc(CCC)c4c2O1)C(=O)C(C)CO3 (centres unmarked) [Example 77, 4-n-propyl-6-n-butyl-11-methyl-2H,6H,12H-benzo[1,2-b:3,4-b′:5,6-b″]-tripyranyl-2,12-dione] | 35.2 | 144 to 145 |  |  | 
CCOC1c2c3c(c4oc(=O)cc(CC)c4c2OCC1C)C(=O)CC(C)O3 (centres unmarked) [Example 94, 8-ethyoxyl-7,10-dimethyl-4-ethyl-7,8,10,11-tetrahydro-6H-benzo[2,3-f;2′,3′-h]-tripyranyl-2,12-dione] |  | 174 to 176 |  | 16.7 (≈ 44.8 µM) | IC50 ([3]; MABA, H37Rv, read-out: IC50): 10 µg/mL (≈ 26.9 µM)
CCCc1cc(=O)oc2c3c(c4c(c12)OCC(C)C4OCC)OC(C)CC3=O (centres unmarked) [Example 95, 8-ethyoxyl-7,10-dimethyl-4-n-propyl-7,8,10,11-tetrahydro-6H-benzo[2,3-f;2′,3‘-h’ ]-trip yranyl-2,12-dione] |  | 198 to 201 |  | 34.5 (≈ 89.2 µM) | IC50 ([3]; MABA, H37Rv, read-out: IC50): 20.1 µg/mL (≈ 52 µM)
CCCc1cc(=O)oc2c3c(c4c(c12)OC(c1ccccc1[N+](=O)[O-])CC4OCC)OC(C)CC3=O (centres unmarked) [Example 98, 8-ethoxyl-4-n-propyl-6-(o-nitrophenyl)-10-methyl-4-n-propyl-7,8,10,11-tetrahydro-6H-benzo[2,3-f;2′,3′-h]-tripyranyl-2,12-dione] | 61 | 237 to 240 |  |  | 
CCCc1cc(=O)oc2c3c(c4c(c12)OC(c1ccccc1N)C=C4)OC(C)CC3=O (centres unmarked) [Example 99] |  | 175 to 177 |  | 15.5 (≈ 37.1 µM) | IC50 ([3]; MABA, H37Rv, read-out: IC50): 7.49 µg/mL (≈ 17.9 µM)
